Reference: PMC9116245, “New 1,2,3-triazole linked ciprofloxacin-chalcones induce DNA damage by inhibiting human topoisomerase I& II and tubulin polymerization” (Journal of Enzyme Inhibition and Medicinal Chemistry, 2022)
Like-named read-outs stand apart in the source and are kept apart here.

Legend:
[1] = system: Human Embryonic Kidney (HEK) 293 cells; assay: Cytotoxicity assay with non-cancerous cells (MTS); type: cell-based; conditions: Homo sapiens; HEK293, 72 h incubation
Procedure: To evaluate the selectivity and safety profile of the synthesised CP hybrids, a cytotoxicity experiment of compounds 4a, 4b, 4e, 4i, and 4j was performed using normal Human Embryonic Kidney (HEK) 293 cells.
To evaluate the selectivity and safety profile of the synthesised ciprofloxacin-chalcone hybrids, a cytotoxicity experiment was performed using a non-cancerous cell line. Briefly, Human Embryonic Kidney (HEK) 293 cells (ATCC, Manassas, VA, USA) were cultured in a Dulbecco’s Modified Eagle Medium (DEMEM) supplemented with 1 mM sodium pyruvate, 10 mM HEPES buffer solution, 2 mM GlutaMAX (Gibco, Grand Island, NY, USA), 50 µg/mL gentamycin sulphate (Dubuque, IA, USA), and 10% foetal bovine serum (ThermoFisher Scientific, USA). Cells were seeded in 96-well plates and incubated overnight in a humidified atmosphere with 5% CO2 at 37 °C. After 24 h, cells were treated with different concentrations (0.01–100 µM) of ciprofloxacin-chalcone hybrids. Also, DMSO and doxorubicin were used as negative and positive controls, respectively. After 72 h, old medium containing treatments were removed, and fresh medium and MTS reagents (CellTiter 96® AQueous One Solution Cell Proliferation Assay, Promega, Madison, WI, USA) were added. […] After 2 h, the absorbance was measured at 490 nm using a Spectra Max plus 384 Microplate reader (Molecular Devices, Sunnyvale, CA, USA) [74]. […]

[2] = system: HT-29; assay: MTT assay; type: cell-based; conditions: Homo sapiens; HT-29, MTT assay, 24 h incubation
Procedure: (§1) The proliferation of colorectal cancer cells (HCT116, HT29 and Caco-2) was assessed using MTT assay as previously reported. Cells were treated with increasing concentrations of 1, 5, 10, 20, 40, 80 or 100 µM of CP hybrids 4a-j, doxorubicin, or DMSO. See Supplementary Appendix A.

[3] = system: Caco-2; assay: MTT assay; type: cell-based; conditions: Homo sapiens; Caco-2, MTT assay, 24 h incubation
Procedure: as §1

[4] = system: HCT116; assay: MTT assay; type: cell-based; conditions: Homo sapiens, HCT-116, 24 h incubation
Procedure: as §1

[5] = system: MCF-7 cancer cell lines; parameters: method as in earlier work; conditions: cited from earlier work
[6] = parameters: method as in PMID 33248713, PMID 24090914; conditions: Figure 1; cited from earlier work
[7] = system: leukemia SR; parameters: method as in PMID 33248713, PMID 24090914; conditions: Figure 1; cited from earlier work
[8] = system: tubulin polymerisation; assay: Tubulin immunofluorescence microscopy in HCT116 cells; type: cell-based, human; conditions: HCT116, IC50 of compound, 36 h
Procedure: (§2) The process of tubulin polymerisation in the cells is important for the completion of mitosis and is targeted for cancer treatment. It has been reported that the suppression of tubulin polymerisation will arrest the cells at the G2/M and it eventually leads to cell death. To test the tubulin-disruptive effect of the CP hybrids, HCT116 cells were analysed by immunocytochemistry. HCT116 cells were incubated for 36 h with IC50 of the CP hybrids (4a, 4b, 4e, 4i, and 4j), nocodazole (a well-known tubulin polymerisation inhibitor, as a positive control), DMSO or Paclitaxel (a well-known tubulin polymerisation inducer, as a negative control), and tubulin was visualised by immunofluorescence microscopy. An antibody for α-tubulin was used. […] Moreover, a Western blot was performed to verify the tubulin polymerisation inhibition ability of the synthesised compounds (Figure 8(B)). The level of polymerised tubulin was decreased in HCT116 cells treated with IC50 values of CP hybrids 4a, 4b, 4e, 4i, 4j, or nocodazole.
HCT116 cells were cultured and treated with the IC50 of the potent compounds (4a, 4b, 4e, 4i, and 4j) or DMSO (control), fixed, permeabilized, and they were incubated with either γH2AX or α-tubulin antibody as the reported procedure in the literature. Confocal images were captured using a Confocal Microscope with a 63X objective. All images were processed using ImageJ software. See Supplementary Appendix A.

[9] = system: polymerised tubulin; assay: Western blot of polymerised tubulin in HCT116 cells; type: cell-based, human; conditions: HCT116, IC50 values of compounds
Procedure: as §2
Western blotting analysis for HCT116 cells was performed according to the reported procedure in the literature[77–79] to determine the effects of CP hybrids; 4a, 4b, 4e, 4i, and 4j on the expression of polymerised tubulin, γH2AX, p-ATR, p-CHK1, and p-Cdc25C by using the appropriate antibody. See Supplementary Appendix A.

[10] = system: normal lung fibroblast WI-38; parameters: method as in PMID 27555286; conditions: normal lung fibroblast WI-38, printed in Figure 1; cited from earlier work
[11] = system: non small lung cancer A459; parameters: method as in PMID 27555286; conditions: non small lung cancer A459, printed in Figure 1; cited from earlier work

## COc1cccc2c1C(=O)c1c(O)c3c(c(O)c1C2=O)C[C@@](O)(C(=O)CO)C[C@@H]3O[C@H]1C[C@H](N)[C@H](O)[C@H](C)O1 [Doxorubicin, reference compound]
[1]
  IC50: 47.5 nM
[2]
  IC50: 880 ± 580 nM
[3]
  IC50: 4150 ± 1080 nM
[4]
  IC50: 1220 ± 270 nM

## CCOc1cc(/C=C/C(=O)c2cccc(O)c2)ccc1OCc1cn(-c2cc(Cl)ccc2O)nn1 [X]
[5]; MCF-7, 24 h
  IC50: 1270 nM
[5]; MCF-7, 48 h
  IC50: 20 nM

## O=C(CN1CCN(c2cc3c(cc2F)c(=O)c(C(=O)O)cn3C2CC2)CC1)Nc1ccc(C(=O)/C=C/c2ccccc2)cc1 [I]
[6]
  GI50: 430 to 39600 nM

## CC[C@@]1(O)C(=O)OCc2c1cc1n(c2=O)Cc2cc3ccccc3nc2-1 [Camptothecin]
[7]
  IC50: 3320 nM

## COC(=O)Nc1nc2ccc(C(=O)c3cccs3)cc2[nH]1 [nocodazole, reference compound]
[8]
  tubulin polymerisation, morphological changes by immunofluorescence: significant tubulin polymerisation inhibition
[9]
  level of polymerised tubulin, Western blot: decreased

## COc1cc(/C=C/C(=O)c2ccc(NC(=O)N3CCN(c4cc5c(cc4F)c(=O)c(C(=O)O)cn5C4CC4)CC3)cc2)cc(OC)c1OC [II]
[7]
  IC50: 640 nM

## O=C(CN1CCN(c2cc3c(cc2F)c(=O)c(C(=O)O)cn3C2CC2)CC1)Nc1ccc(Cl)cc1 [III]
[10]
  IC50: > 100000 nM
[11]
  IC50: 14800 nM
